Changes are numbered by the printed parent chain. Numbers in names are those of the source. Entries after “also recorded” stand apart in the source; their conditions may differ.
Key:
[1] = molecular target: T1, Medicago truncatula NFP ectodomain (NFP-ECD, residues 28-246), wild type, SEQ ID NO: 1 (Medicago truncatula, UniProt Q0GXS4); assay: Biolayer interferometry (BLI) binding of NFP / NFP-ECD to immobilized LCO and CO ligands; settings: for Binding of mutated LCOs to NFP (in words): ligand binding tests, FIG. 3B
T1 construct: The Medicago truncatula NFP ectodomain (residues 28-246); AcMNPV gp67 signal peptide (replaces native signal peptide 1-27) (N); hexa-histidine tag (C); made in house; host or cells: Sf9 cells (Spodoptera frugiperda), baculovirus
Method: (§1) Expression and purification of Medicago NFP ectodomain: The Medicago truncatula NFP ectodomain (residues 28-246) was codon-optimized for insect cell expression (Genscript, Piscataway, USA) and cloned into the pOET4 baculovirus transfer vector (Oxford Expression Technologies). The native NFP signal peptide (residues 1-27, predicted by SignalP 4.1) was replaced with the AcMNPV gp67 signal peptide to facilitate secretion and a hexa-histidine tag was added to the C-terminus. Point mutants of NFP were engineered using site-directed mutagenesis. Recombinant baculoviruses were produced in Sf9 cells (Spodoptera frugiperda) using the FlashBac Gold kit (Oxford Expression technologies) according to the manufacturer's instructions with Lipofectin (ThermoFisher Scientific) as a transfection reagent. Protein expression was performed as follows. Suspension-cultured Sf9 cells were maintained with shaking at 299 K in serum-free MAX-XP (BD-Biosciences, discontinued) or HyClone SFX (GE Healthcare) medium supplemented with 1% Pen-Strep (10000 U/ml, Life technologies) and 1% CD lipid concentrate (Gibco). Protein expression was induced by adding recombinant passage 3 virus once the Sf9 cells reached a cell density of 1.0*10^7^6 cells/ml. After 5-7 days of expression, medium supernatant containing NFP ectodomains was harvested by centrifugation. This was followed by an overnight dialysis step against 50 mM Tris-HCl pH 8, 200 mM NaCl at 277 K. The NFP ectodomain was enriched by two subsequent steps of Ni-IMAC purification (HisTrap excel/HisTrap HP, both GE Healthcare). For crystallography experiments, N-glycans were removed using the endoglycosidase PNGase F (1:15 (w/w), room temperature, overnight). As a final purification step, NFP ectodomain was purified by SEC on a Superdex 200 10/300 or HiLoad Superdex 200 16/600 (both GE Healthcare) in phosphate buffered saline at pH 7.2 supplemented to a total of 500 mM NaCl (for binding assays) or 50 mM Tris-HCl, 200 mM NaCl (for crystallography). NFP ectodomain elutes as a single, homogeneous peak corresponding to a monomer. Point mutated versions of NFP were expressed and purified following the same protocol.
(§2) Biolayer interferometry (BLI): Binding of NFP and mutated versions of NFP to ligands was measured on an Octet RED 96 system (Pall ForteBio). The ligands used were LCO-IV (from S. meliloti), LCO-V (from S. meliloti), LCO-V (from M. loti), and C06 (from M. loti). S. meliloti LCO consists of a tetrameric/pentameric N-acetylglucosamine backbone that is 0-sulfated on the reducing terminal residue, 0-acetylated on the non-reducing terminal residue, and mono-N-acylated by unsaturated C16 acyl groups. M. loti LCO is a pentameric N-acetylglucosamine with a cis-vaccenic acid and a carbamoyl group at the non-reducing terminal residue together with a 2,4-O-acetylfucose at the reducing terminal residue. Biotinylated ligand conjugates were immobilized on streptavidin biosensors (kinetic quality, Pall ForteBio) at a concentration of 125-250 nM for 5 minutes. The binding assays using the S. meliloti ligands (LCO-IV and LCO-V) were replicated seven times, while the binding assays using the M loti ligands (LCO-V and C06) were replicated six times. Data analysis was performed in GraphPad Prism 6 software (GraphPad Software, Inc.). Equilibrium dissociation constants derived from the steady-state were determined by applying a non-linear regression (one site, specific binding) to the response at equilibrium plotted against the protein concentration. Kinetic parameters were determined by non-linear regression (association followed by dissociation) on the subtracted data.
(§3) Mutated lipochitooligosaccharide (LCO) ligands: S. meliloti LCO consists of a tetrameric/pentameric N-acetylglucosamine backbone that is O-sulfated on the reducing terminal residue, O-acetylated on the non-reducing terminal residue, and mono-N-acylated by unsaturated C16 acyl groups. […]

[2] = molecular target: T2, Medicago NFP ectodomain (NFP-ECD, WT) (Medicago truncatula, UniProt Q0GXS4); assay: Biolayer interferometry (BLI) binding of NFP-ECD to immobilized biotinylated ligands; settings: for binding to NFP of mutated LCOs: FIG. 3B, Example 4
T2 construct: The Medicago truncatula NFP ectodomain (residues 28-246) was codon-optimized; AcMNPV gp67 signal peptide (replaces native signal peptide 1-27) (N); made in house; host or cells: Sf9 (Spodoptera frugiperda), baculovirus, secreted into medium
T2 sequence (Q0GXS4 28-246): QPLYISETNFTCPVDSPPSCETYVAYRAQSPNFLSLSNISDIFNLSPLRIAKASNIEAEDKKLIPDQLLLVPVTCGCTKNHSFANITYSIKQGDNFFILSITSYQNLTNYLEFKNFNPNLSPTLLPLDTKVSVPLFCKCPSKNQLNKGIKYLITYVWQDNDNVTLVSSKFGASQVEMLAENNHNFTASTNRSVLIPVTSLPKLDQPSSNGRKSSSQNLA
Method: as §1, §2, §3

Medicago nfp mutants = assay: Complementation assay (nodulation) by hairy root transformation; assay type: in vivo; settings: for nodules per plant (complementation): 49 days after inoculation with S. meliloti strain 1021, FIG. 6A
Text: Complementation assay: Construct assembly, plant growth conditions, hairy root transformations, nodulation and ROS assays were generally conducted as described in Bozsoki et al. (2017) (Bozsoki Z, Cheng J, Feng F, Gysel K, Vinther M, Andersen KR, Oldroyd G, Blaise M, Radutoiu S, Stougaard J (2017) Receptor-mediated chitin perception in legume roots is functionally separable from Nod factor perception. Proc Natl Acad Sci 114: E8118-E8127). The tested transgenes were the mutated LysM receptors described in Example 5. In addition, NFP substitution variants replacing residues outside the hydrophobic patch in LysM2 (Q119F, K141E and T150H) or in LysM3 (T216F) were tested.

CC(=O)N[C@H]1[C@H](O[C@H]2[C@H](O)[C@@H](NC(C)=O)[C@H](O[C@H]3[C@H](O)[C@@H](NC(C)=O)C(O)O[C@@H]3CO)O[C@@H]2CO)O[C@H](CO)[C@@H](O[C@@H]2O[C@H](CO)[C@@H](O[C@@H]3O[C@H](CO)[C@@H](O[C@@H]4O[C@H](CO)[C@@H](O)[C@H](O)[C@H]4NC(C)=O)[C@H](O)[C@H]3NC(C)=O)[C@H](O)[C@H]2NC(C)=O)[C@@H]1O (stereo partly shown) [M. loti C06]
Binding to NFP (in words) ([1]; BLI, FIG. 2B, six replicates): neither was NFP binding; also recorded: does not bind | NFP binding (BLI) ([2]; BLI, FIG. 2B, six replicates): not detected; also recorded: does not bind

CCCCCC/C=C\CCCCCCCCCC(=O)N[C@H]1[C@H](O[C@H]2[C@H](O)[C@@H](NC(C)=O)[C@H](O[C@H]3[C@H](O)[C@@H](NC(C)=O)[C@H](O[C@H]4[C@H](O)[C@@H](NC(C)=O)C(O)O[C@@H]4COS(=O)(=O)O)O[C@@H]3CO)O[C@@H]2CO)O[C@H](COC(C)=O)[C@@H](O)[C@@H]1O (stereo partly shown) [nodFE-LCO-IV]
Binding to NFP-ECD (in words) ([1]; further BLI assays, FIGS. 15B-15E, analyte 1.56-100 μM): no significant binding | Binding of mutated LCOs to NFP (in words) [1]: reduced NFP binding | binding to NFP of mutated LCOs [2]: reduced NFP binding | NFP-ECD binding (BLI) ([2]; further BLI assays, FIGS. 15B-15E): no significant binding

CCCCCC/C=C\CCCCC/C=C/C(=O)N[C@H]1[C@H](O[C@H]2[C@H](O)[C@@H](NC(C)=O)[C@H](O[C@H]3[C@H](O)[C@@H](NC(C)=O)[C@H](O[C@H]4[C@H](O)[C@@H](NC(C)=O)C(O)O[C@@H]4CO)O[C@@H]3CO)O[C@@H]2CO)O[C@H](COC(C)=O)[C@@H](O)[C@@H]1O (stereo partly shown) [nodH-LCO-IV]
Binding of mutated LCOs to NFP (in words) [1]: Dramatically reduced binding | reduction of binding to NFP-ECD compared to wild type S. meliloti LCO-IV ([2]; BLI, FIGS. 15D-15E): more than 21 fold | binding to NFP of mutated LCOs [2]: Dramatically reduced binding

B1: Q119F: NFP substitution variant outside the hydrophobic patch in LysM2 (protein, UniProt Q0GXS4 28-595, looked up, variant Q119F)
Serine/threonine …: QPLYISETNFTCPVDSPPSCETYVAYRAQSPNFLSLSNISDIFNLSPLRIAKASNIEAEDKKLIPDQLLLVPVTCGCTKNHSFANITYSIKFGDNFFILSITSYQNLTNYLEFKNFNPNLSPTLLPLDTKVSVPLFCKCPSKNQLNKGIKYLITYVWQDNDNVTLVSSKFGASQVEMLAENNHNFTASTNRSVLIPVTSLPKLDQPSSNGRKSSSQNLALIIGISLGSAFFILVLTLSLVYVYCLKMKRLNRSTSSSETADKLLSGVSGYVSKPTMYEIDAIMEGTTNLSDNCKIGESVYKANIDGRVLAVKKIKKDASEELKILQKVNHGNLVKLMGVSSDNDGNCFLVYEYAENGSLEEWLFSESSKTSNSVVSLTWSQRITIAMDVAIGLQYMHEHTYPRIIHRDITTSNILLGSNFKAKIANFGMARTSTNSMMPKIDVFAFGVVLIELLTGKKAMTTKENGEVVILWKDFWKIFDLEGNREERLRKWMDPKLESFYPIDNALSLASLAVNCTADKSLSRPTIAEIVLCLSLLNQPSSEPMLERSLTSGLDAEATHVVTSVIAR
nodules per plant (complementation) (Medicago nfp mutants): did not affect nodulation

B2: T216F: NFP substitution variant in LysM3 (protein, UniProt Q0GXS4 28-595, looked up, variant T216F)
Serine/threonine …: B1 Serine/threonine … with F92Q, T189F
nodules per plant (complementation) (Medicago nfp mutants): did not affect nodulation

B3: T150H: NFP substitution variant outside the hydrophobic patch in LysM2 (protein, UniProt Q0GXS4 28-595, looked up, variant T150H)
Serine/threonine …: B1 Serine/threonine … with F92Q, T123H
nodules per plant (complementation) (Medicago nfp mutants): did not affect nodulation

B4: K141E: NFP substitution variant outside the hydrophobic patch in LysM2 (protein, UniProt Q0GXS4 28-595, looked up, variant K141E)
Serine/threonine …: B1 Serine/threonine … with F92Q, K114E
nodules per plant (complementation) (Medicago nfp mutants): did not affect nodulation

B5: wild type Nfp gene: wild type Medicago NFP LysM receptor transgene (SEQ ID NO: 1) (protein)
chain: MSAFFLPSSSHALFLVLMLFFLTNISAQPLYISETNFTCPVDSPPSCETYVAYRAQSPNFLSLSNISDIFNLSPLRIAKASNIEAEDKKLIPDQLLLVPVTCGCTKNHSFANITYSIKQGDNFFILSITSYQNLTNYLEFKNFNPNLSPTLLPLDTKVSVPLFCKCPSKNQLNKGIKYLITYVWQDNDNVTLVSSKFGASQVEMLAENNHNFTASTNRSVLIPVTSLPKLDQPSSNGRKSSSQNLALIIGISLGSAFFILVLTLSLVYVYCLKMKRLNRSTSSSETADKLLSGVSGYVSKPTMYEIDAIMEGTTNLSDNCKIGESVYKANIDGRVLAVKKIKKDASEELKILQKVNHGNLVKLMGVSSDNDGNCFLVYEYAENGSLEEWLFSESSKTSNSVVSLTWSQRITIAMDVAIGLQYMHEHTYPRIIHRDITTSNILLGSNFKAKIANFGMARTSTNSMMPKIDVFAFGVVLIELLTGKKAMTTKENGEVVILWKDFWKIFDLEGNREERLRKWMDPKLESFYPIDNALSLASLAVNCTADKSLSRPTIAEIVLCLSLLNQPSSEPMLERSLTSGLDAEATHVVTSVIAR
nodules per plant (complementation) (Medicago nfp mutants): 5 nodules per plant

B6: NFP L147D L154D: double-mutated NFP, leucine residues L147 and L154 replaced with aspartate (protein, UniProt Q0GXS4 28-246, looked up, variant L147D L154D)
extracellular domain: T2 sequence (Q0GXS4 28-246) with L120D, L127D
modifications: extracellular domain
notes: double-mutated NFP, leucine residues L147 and L154 replaced with aspartate
nodules per plant (complementation) (Medicago nfp mutants): did not develop any nodules | complementation (nodulation) (Medicago nfp mutants; S. medicae inoculation, 28 dpi, FIG. 6B): complements poorly

— patent publication US20210163976A1, “GENETICALLY ALTERED PLANTS EXPRESSING HETEROLOGOUS RECEPTORS THAT RECOGNIZE LIPO-CHITOOLIGOSACCHARIDES” (Aarhus Universitet, priority 2018, published 2021)
